Reference: patent EP1285920A1, “C10 Ester sustituted taxanes as antitumor agents” (Florida State University Research Foundation, Inc., priority 2001, dated 2003)
Read-outs that look alike come from different tables or passages of the source. Marks after values point to notes of the source that are not given here.

Assays:
[1] = tested on: DU145 prostate carcinoma; settings: number of 5 mice, Day 91
From the text: Dosing was initiated on Day 1. […] Treatment groups are detailed in Table 5.

[2] = tested on: A375 melanoma
Method: Dosing was initiated on Day 1. […] Taxotere was given i.v. on a qd x 1 schedule at a dose of 70 mg/kg. […] The study was terminated on Day 60. Treatment groups are detailed in Table 9.

[3] = tested on: HCT116; assay: In Vitro cytotoxicity measured by the cell colony formation assay; type: cell-based, human; settings: Homo sapiens, HCT-116; read-out: IN VITRO ID 50 HCT116
How it was run: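 Four hundred cells per dish in McCoy's 5a medium with 10% FBS were allowed to attach for 5 h at 37 °C. They were then exposed to compound for 72 h at 37 °C, added as a 10× stock made fresh in medium. After HBSS rinsing and refeeding, colonies were counted after 7 days.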

[4] = tested on: Panc-1 pancreatic carcinoma
Method: (§3) The dosing volume was 0.3 ml per 20 g mouse.
Female NCr-nude mice were implanted subcutaneously with 1 mm^3 Panc-1 pancreatic carcinoma fragments in the flank and sorted into treatment groups of six mice each. […] Dosing was initiated on Day 1. The antitumor compounds were given i.v. at an estimated maximum tolerated dose (MTD) appropriate for each agent on a qd x 1 schedule (single administration of compound). […] The vehicle was administered i.v. to control mice in Group 1 on the qd x 1 schedule.
(§4) The mean days of survival is the number of days after which a neoplasm reached a size of 1.5 g and the animal was euthanized. A complete response is obtained if the tumor shrinks to a size smaller than its size on Day 1 of the study.

[5] = tested on: Panc-1 pancreatic carcinoma; assay: In vivo evaluation against Panc-1 human pancreatic carcinoma (Example 17); settings: i.v. qd x 1
Method: as §3
Female NCr-nude mice were implanted subcutaneously with 1 mm^3 Panc-1 pancreatic carcinoma fragments in the flank and sorted into treatment groups of six mice each. […] Dosing was initiated on Day 1. The antitumor compounds were given i.v. at an estimated maximum tolerated dose (MTD) appropriate for each agent on a qd x 1 schedule (single administration of compound). […] The vehicle was administered i.v. to control mice in Group 1 on the qd x 1 schedule. The study was terminated on Day 60.
as §4

[6] = tested on: VM46 colon carcinoma
Method: Dosing was initiated on Day 1. […] Taxotere was given i.v. at a dose of 70 mg/kg on a qd x 1 schedule.

[7] = tested on: blood cell populations; assay: Effect of oral treatment on blood cell populations and body weight in the MX-1 study (Example 22); type: in vivo, nu/nu mice; set-up: neutrophil reduction: concentration or dose not given beside the values; settings: for % Reduction (Monocytes) / % Reduction (Neutrophils): Day 4, vs vehicle; for % Reduction (Monocytes) / % Reduction (Neutrophils) / Monocytes (K/µL) / Neutrophils (K/µL) / Maximum Weight Loss (Day): mg/kg: 0499 80, 0550 73, 0611 113, 0748 200; for Monocytes (K/µL) / Neutrophils (K/µL): Day 4; for Monocytes (K/µL) / Neutrophils (K/µL) / Maximum Weight Loss (Day): single oral bolus Day 1; for Maximum Weight Loss (Day): body weight, day of maximum in parentheses in the cell
Method: (§1) Antitumor compounds were administered orally in a study to investigate whether such a formulation is efficacious against the MX-1 human breast carcinoma xenograft. Antitumor compound 0499 was formulated as Solution 1 in Example 6. Antitumor compound 0550 was formulated as Solution 2 in Example 6. Antitumor compound 0611 was formulated as Solution 3 in Example 6. Antitumor compound 0748 was formulated as Solution 4 in Example 6. Other antitumor compounds were formulated similarly. The compounds were prepared in a vehicle of 90% saline, 5% Cremophor, and 5% ethanol.
(§2) Female nu/nu mice (11-12 weeks of age; implanted subcutaneously with 1 mm^3 MX-1 human breast carcinoma fragments in the flank) were sorted into one control group (n=10) and four treatment (n=6) groups (group mean tumor size of 47-49 mg). The study was terminated on Day 63.
In addition to survival and tumor regression responses, the effect of treatment on blood cell populations was assessed. The major effect of these antitumor compounds on blood cell populations was a marked reduction in the neutrophil cell number. As well, monocyte depletion correlated fairly well with neutrophil reduction for each antitumor compound. […] There was a correlation between antitumor activity and reduced neutrophil count. In general, toxicity (as determined by neutrophil depletion) and weight loss correlated with efficacy. […] Importantly, the toxicities observed with the very efficacious antitumor compounds were manageable and reversible; neutrophil count and body weight rebounded from their low points in just a few days. Table 20 summarizes the weight reduction, neutrophil and monocyte measurements on Day 4, with tumor weight reduction calculated at Day 18: Table 20

[8] = tested on: MX-1 human breast carcinoma; type: in vivo; settings: for complete tumor regressions: six mice per group (0611: five evaluable), ended Day 63; for Toxic Deaths / Complete Response / Partial Response / Stable Disease: number of mice, mg/kg: 0499 80, 0550 73, 0611 113, 0748 200, 6 mice/group; for Complete Response / Partial Response / Stable Disease: Day 63; for % Reduction (Weight): po, 432 h
Method: as §1, §2

[9] = tested on: SKMES lung carcinoma; assay: In vivo evaluation of oral administration against SKMES human lung carcinoma xenograft (Example 21); settings: number of mice, single oral bolus Day 1, mg/kg: Taxol 40, 0687 228, 0503 73, 6 mice/group
Method: Female Nu/Nu mice (6-8 weeks of age; implanted with 1 mm^3 SKMES lung carcinoma fragments in the flank) were sorted into treatment groups of six mice each. […] Treatments were administered as a single oral bolus on Day 1, and the study was terminated on Day 60.
A complete response is obtained if the tumor is not palpable at the end of the study.
The total response rate is defined as the percentage of evaluable animals (excluding deaths due to procedure or toxicity) in a group that experience complete or partial responses at the termination of the study.

[10] = tested on: A2780 ovarian carcinoma; settings: number of mice; i.v. qd x 1 at estimated MTD (Taxol 24 mg/kg, Taxotere 70 mg/kg, 0983 72.6 mg/kg); 5 mice/group (Taxotere 6)
Method: Dosing was initiated on Day 1. […] Taxotere was given i.v. on a qd x 1 schedule at a dose of 70 mg/kg. […] The study was terminated on Day 60. Treatment groups are detailed in Table 7.

[11] = tested on: MX-1 carcinoma; settings: number of 6 mice; i.v. qd x 1 at MTD, Day 60; mg/kg: Taxol 36 (split dose), 0503 72.6, 0536 49, 0663 159, 0670 123, 0687 159, 0706 108, 0908 159, 0947 76.9, 0951 72.6, 0983 67.4, 0999 49, 1003 49, 1011 108
How it was run: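 Mice dosed with a single i.v. bolus (qd x 1) at each compound's MTD, formulated in 5% ethanol, 5% Cremophor, 90% isotonic saline. Study ended Day 60; complete response = tumor not palpable at study end.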

[12] = tested on: HCT116 carcinoma; settings: number of 5 mice; i.v. qd x 1 at MTD, Day 60; mg/kg: Taxol 36 (split doses), 0503 72.6, 0536 49, 0663 159, 0670 123, 0687 159, 0706 108, 0908 159, 0947 76.9, 0951 72.6, 0983 72.6, 0999 49, 1003 49, 1011 108
How it was run: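 Mice bearing HCT116 tumours received a single i.v. maximum tolerated dose per compound, formulated in 5% ethanol, 5% Cremophor, 90% isotonic saline. Study ended on Day 60; complete response meant no palpable tumour at study end.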

[13] = number of mice, i.v. qd x 1, mg/kg: Taxol 24, 0854 46.6, 1011 107.6, 6 mice/group, Day 63
[14] = number of mice, mg/kg: Taxol 36, 0499 77, 0503 72.6, 0670 123.1, 0706 107.6, 0838 72.6, 0854 76.9, 6 mice/group, Day 60
[15] = number of mice, i.v. qd x 1, mg/kg: Taxol 24, 0499 77, 0503 72.6, 0670 123.1, 0706 107.6, 0838 72.6, 0854 46.6, 0983 67.4, Taxotere 70, 6 mice/group, Day 64

CC(=O)O[C@@]12CO[C@@H]1C[C@H](O)[C@@]1(C)C(=O)[C@H](OC(=O)C3CC3)C3=C(C)[C@@H](OC(=O)[C@H](O)[C@@H](NC(=O)OC(C)(C)C)c4cccs4)C[C@@](O)([C@@H](OC(=O)c4ccccc4)[C@H]21)C3(C)C [Compound 0854]
Toxic Deaths ([1]; i.v. qd x 1 at estimated MTD (Taxol 24 mg/kg as two split doses)): 5
Survivors ([1]; i.v. qd x 1 at estimated MTD (Taxol 24 mg/kg split)): 0
mean group weight losses ([2]; A375, i.v. qd x 1): 20 - 30%
Toxic Deaths ([2]; number of mice, i.v. qd x 1 at estimated MTD (Taxol 24 mg/kg, Taxotere 70 mg/kg), 6 mice/group (Taxotere 7)): 6
Survivors ([2]; number of mice, i.v. qd x 1 at estimated MTD (Taxol 24 mg/kg, Taxotere 70 mg/kg), 6 mice/group (Taxotere 7), Day 60): 0
IC50 [3]: < 0.001 µM
Mean Score ([4]; iv): 0 ± 0
Toxic Deaths ([4]; number of mice, i.v. qd x 1, mg/kg: Taxol 24, 0854 46.6, 1011 107.6, 6 mice/group): 6
Complete Response [4, 13]: 0
Partial Response [4, 13]: 0
Stable Disease [4, 13]: 0
Toxic Deaths ([5]; Panc-1 (Example 17), six mice per group): six
Toxic Deaths ([5]; number of mice, mg/kg: Taxol 36, 0499 77, 0503 72.6, 0670 123.1, 0706 107.6, 0838 72.6, 0854 76.9, 6 mice/group): 6
Complete Response [5, 14]: 0
Partial Response [5, 14]: 2
Stable Disease [5, 14]: 0
Mean Score ([5]; tumor scoring system, mg/kg: Taxol 36, 0499 77, 0503 72.6, 0670 123.1, 0706 107.6, 0838 72.6, 0854 76.9, 6 mice/group): 0 ± 0
response rate ([6]; VM46, i.v. qd x 1 at estimated MTD): 16.7-40%
Mean Score ([6]; iv): 4.7 ± 1.6
MDS (n) ([6]; iv, 1536 h): 52.9 ± 6.6 (2) days
maximal mean weight loss ([6]; mouse, in vivo, iv): under 12%
Toxic Deaths ([6]; number of mice, i.v. qd x 1, mg/kg: Taxol 24, 0499 77, 0503 72.6, 0670 123.1, 0706 107.6, 0838 72.6, 0854 46.6, 0983 67.4, Taxotere 70, 6 mice/group): 1
Complete Response [6, 15]: 0
Partial Response [6, 15]: 2
Stable Disease [6, 15]: 1
Survivors [6, 15]: 3

CCC(=O)O[C@H]1C(=O)[C@@]2(C)[C@H]([C@H](OC(=O)c3ccccc3)[C@]3(O)C[C@H](OC(=O)[C@H](O)[C@@H](NC(=O)OC(C)(C)C)c4cccs4)C(C)=C1C3(C)C)[C@]1(OC(C)=O)CO[C@@H]1C[C@@H]2O [Compound 0550]
% Reduction (Monocytes) ([7]; single oral bolus): 80.2%
% Reduction (Neutrophils) ([7]; single oral bolus): 95.9%
Monocytes (K/µL) [7]: 0.019 K/µL
Neutrophils (K/µL) [7]: 0.037 K/µL
neutrophil reduction ([7]; MX-1 study, single oral bolus, day 4): 95.9%
body weight loss ([7]; MX-1 study, single oral bolus, day 5): 16.1%
Maximum Weight Loss (Day) [7]: -16.1% (5)
IC50 [3]: < 0.01 µM
complete tumor regressions ([8]; MX-1, single oral bolus Day 1): six
Toxic Deaths ([8]; single oral bolus Day 1): 0
Complete Response ([8]; single oral bolus Day 1): 6
Partial Response ([8]; single oral bolus Day 1): 0
Stable Disease ([8]; single oral bolus Day 1): 0
% Reduction (Weight) [8]: 100.0%

CCC(=O)O[C@H]1C(=O)[C@@]2(C)[C@H]([C@H](OC(=O)c3ccccc3)[C@]3(O)C[C@H](OC(=O)[C@H](O)[C@@H](NC(=O)OC(C)(C)C)c4ccccc4)C(C)=C1C3(C)C)[C@]1(OC(C)=O)CO[C@@H]1C[C@@H]2O [Compound 0611]
% Reduction (Monocytes) ([7]; single oral bolus): 56.3%
% Reduction (Neutrophils) ([7]; single oral bolus): 93.7%
Monocytes (K/µL) [7]: 0.042 K/µL
Neutrophils (K/µL) [7]: 0.057 K/µL
Maximum Weight Loss (Day) [7]: -15.0% (5)
IC50 [3]: < 0.01 µM
complete tumor regressions ([8]; MX-1, single oral bolus Day 1): four
Toxic Deaths ([8]; single oral bolus Day 1): 1^a
Complete Response ([8]; single oral bolus Day 1): 4
Partial Response ([8]; single oral bolus Day 1): 0
Stable Disease ([8]; single oral bolus Day 1): 0
% Reduction (Weight) [8]: 100.0%

CCC(=O)O[C@H]1C(=O)[C@@]2(C)[C@H]([C@H](OC(=O)c3ccccc3)[C@]3(O)C[C@H](OC(=O)[C@H](O)[C@@H](NC(=O)c4ccccc4)c4cccs4)C(C)=C1C3(C)C)[C@]1(OC(C)=O)CO[C@@H]1C[C@@H]2O [Compound 0687]
Toxic Deaths [9]: 1^a
Complete Response ([9]; Day 60): 4
Partial Response ([9]; Day 60): 1
Stable Disease ([9]; Day 60): 0
Toxic Deaths [10]: 0
Toxic Deaths [11]: 1
Toxic Deaths [12]: 0

CCC(=O)O[C@H]1C(=O)[C@@]2(C)[C@H]([C@H](OC(=O)c3ccccc3)[C@]3(O)C[C@H](OC(=O)[C@H](O)[C@@H](NC(=O)c4ccccc4)c4ccccc4)C(C)=C1C3(C)C)[C@]1(OC(C)=O)CO[C@@H]1C[C@@H]2O [Compound 0748]
% Reduction (Neutrophils) ([7]; single oral bolus): 70.5%
Monocytes (K/µL) [7]: 0.117 K/µL
Neutrophils (K/µL) [7]: 0.269 K/µL
Maximum Weight Loss (Day) [7]: -4.6% (5)
IC50 [3]: < 0.01 µM
antitumor activity ([8]; MX-1, single oral bolus Day 1): significant survival extensions compared to vehicle control mice
Toxic Deaths ([8]; single oral bolus Day 1): 0
Complete Response ([8]; single oral bolus Day 1): 0
Partial Response ([8]; single oral bolus Day 1): 0
Stable Disease ([8]; single oral bolus Day 1): 1
% Reduction (Weight) [8]: 69.1%
